Source: patent publication US20010046497A1, “G-protein coupled receptor and methods” (priority 2000, published 2001)

Experiments:
Format in all cases: cell-based
SP168 receptor [1] = molecular target: T1, SP168 receptor (Homo sapiens, UniProt Q9H244); experiment: FLIPR Ca2+ assay, SP168 co-transfected with Gq/i3 in NIH3T3 cells (agonists); parameters: expressed in transfected cells; host or cells: NIH3T3 cells, co-transfected with Gq/i3; details: for EC50: FLIPR, peak Ca2+ increment, SP168 + Gq/i3 transfected cells
T1 sequence (Q9H244 whole entry): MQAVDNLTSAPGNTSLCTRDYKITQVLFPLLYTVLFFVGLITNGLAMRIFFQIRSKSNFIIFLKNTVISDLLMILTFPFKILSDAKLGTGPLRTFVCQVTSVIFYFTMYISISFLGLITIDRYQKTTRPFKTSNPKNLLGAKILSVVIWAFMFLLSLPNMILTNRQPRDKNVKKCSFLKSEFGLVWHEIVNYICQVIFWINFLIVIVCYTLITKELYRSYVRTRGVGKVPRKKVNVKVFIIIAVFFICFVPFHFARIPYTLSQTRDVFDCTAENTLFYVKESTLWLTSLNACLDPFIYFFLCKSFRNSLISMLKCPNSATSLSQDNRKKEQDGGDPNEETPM
Description: (§1) In order to identify SP168 receptor ligands the SP168 open reading frame was subcloned into the pcDNA3.1 expression vector under the control of the CMV promoter and transfected into mammalian cells. After allowing two days for receptor expression, the transfected cells were seeded into 96 well plates, loaded with the Ca^2+ sensitive Fluo-3AM dye and challenged with various compounds. The peak increments in Ca^2+ evoked by the test compounds were measured using the Fluorometric Inaging Plate Reader (FLIPR) system. The endogenous ligand of the SP168 receptor was purified from rat spinal cords using a series of chromatography steps and its structure was identified as being ADP by Mass spectroscopy. […] In addition to ADP, other agonists were also identified for SP168.
SP168 receptor cDNA was subdloned into the pcDNA3.1 expression vector (Invitrogen) and transiently co-transfected with chimera G protein Gq/i3 into CHO-DHFR^− (ATCC CRL-9096) cells using lipofectamine (Gibco- BRL). Chimera G protein Gq/i3 was constructed by replacing the C-terminus five amino acid residues of human Gqa with the five amino acid residue of human Gi3a (Conklin et al., Nature, 363, p274-276). pCDNA 3.1 vector DNA was also co-transfected with chimera G protein Gq/i3 as a negative control. The transfected cells were seeded into 96 well plates and incubated overnight at 37° C. in a tissue culture incubator. The growth medium was aspirated and replaced with 100 μl of loading medium (DMEM containing 1% FBS, […] Fluo-3-AM/10% pluronic acid and 2.5 mM Probenecid) and incubated for 1 hour at 37° C. The cells were subsequently washed 3 times with Hank's BSS buffer containing 20 mM HEPES, 2.5 mM Probenecid, and 0.1% BSA using the gentle setting in a Denley cell washer (Denley Instruments). The washed cells were placed in a Fluorometric Imaging Plate Reader (FLIPR) and changes in cellular fluorescence recorded after the addition of various dilutions of tissue extract fractions.
(§2) Pharmacology of SP168—The pharmacological profile of SP168 was fuirther characterized by using the FLIPR and cAMP assays. SP168 was co-transfected with Gq/i3 to NIH3T3 cells, and a variety of nucleotides were screened by the FLIPR assay. […] EC50 for background ATP was about 1600 rLM, which was similar to 2-C1-ATP but was 20 fold higher than ADP. Therefore, even if ATP was included, the order of agonist potency was 2-MeS-ATP=2-MeS-ADP>ADP=ADPPS>ATPyS=ATP.

NIH3T3 = experiment: FLIPR assay, background response of NIH3T3 cells; details: fold higher than ADP
Text: as §2

SP168 receptor [2] = molecular target: T1, SP168 receptor; experiment: cAMP assay (inhibition of adenylyl cyclase); parameters: expressed in transfected cells; details: adenylyl cyclase / cAMP pathway
Description: as §1
The SP168 receptor cDNA was stably transfected into CHO-DHFR cells according standard procedures. The SP168 receptor stable cell line and wild type cell grown on 12-well plates were incubated for 2 hr with […] of medium plus 5 μCi of [3H]adenine/ml. Then 50 μl of Hepes (250 mM, pH 7.5, 50 μM Forskolin, 200 μM IBMX) with the compound to be screened was added to the cells and incubated for 10 minutes at 37 ° C. Incubations were terminated by addition of 0.8 ml of 5% trichloroacetic acid. [^3H]cAMP was purified using Dowex and alumina chromatography as previously described (Harden et al., Mol. Pharmacol. 21:570-580, 1982).

| SMILES | EC50 (SP168 receptor [1]) [nM] | further results |
| --- | --- | --- |
| CSc1nc(N)c2ncn([C@@H]3O[C@H](COP(=O)(O)OP(=O)(O)O)[C@@H](O)[C@H]3O)c2n1 [2-MeS-ADP] | 2.3 | – |
| Nc1ncnc2c1ncn2[C@@H]1O[C@H](COP(=O)(O)OP(=O)(O)OP(=O)(O)O)[C@@H](O)[C@H]1O [ATP] | – | EC50 of background ATP relative to ADP (NIH3T3): 20 fold; shift of dosage curve by SP168 transfection (SP168 receptor [1]; NIH3T3, FLIPR): did not induce the shift of dosage curve |
| Nc1ncnc2c1ncn2[C@@H]1O[C@H](COP(=O)(O)OP(=O)(O)O)[C@@H](O)[C@H]1O [ADP, 5′-adenosine diphosphate] | 74 | activation of the SP168 receptor (SP168 receptor [2]): activate the SP168 receptor through inhibition of adenylyl cyclase |
| Nc1ncnc2c1ncn2[C@@H]1O[C@H](COP(=O)(O)OP(=O)(O)OP(O)(O)=S)[C@@H](O)[C@H]1O [ATPγS] | 1200 | – |
| Nc1ncnc2c1ncn2[C@@H]1O[C@H](COP(=O)(O)OP(O)(O)=S)[C@@H](O)[C@H]1O [ADPβS] | 89 | – |

More lines, main results first:

| EC50 (SP168 receptor [1]) [nM] | SMILES | further results |
| --- | --- | --- |
| 470 | Nc1nc(Cl)nc2c1ncn2[C@@H]1O[C@H](COP(=O)(O)OP(=O)(O)OP(=O)(O)O)[C@@H](O)[C@H]1O [2-Cl-ATP] | – |
| 3.4 | CSc1nc(N)c2ncn([C@@H]3O[C@H](COP(=O)(O)OP(=O)(O)OP(=O)(O)O)[C@@H](O)[C@H]3O)c2n1 [2-MeS-ATP] | – |
